Laboratory results: patent US6737383B1, “Herbicidal oxadiazolidines” (priority 1999, dated 2004)

Legend:
[1] = tested on: sugar beet; test: Test B pre/postemergence sugar beet; assay type: in vivo, Beta vulgaris
Procedure, shortened: (§1)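 Response is a visual 0-to-10 score relative to untreated plants, where 0 means no effect and 10 means complete control, taken twelve to sixteen days after application. Treatments went onto soil at planting and onto foliage of 1- to 4-leaf plants, using a surfactant-containing non-phytotoxic solvent.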

[2] = tested on: morningglory; test: Test B pre/postemergence morningglory; assay type: in vivo, Ipomoea hederacea
Procedure, shortened: as §1

[3] = tested on: giant foxtail; test: Test B pre/postemergence giant foxtail; assay type: in vivo, Setaria faberii
Procedure, shortened: as §1

[4] = tested on: surinam grass; test: Test B pre/postemergence surinam grass; assay type: in vivo, Brachiaria decumbens
Procedure, shortened: as §1

[5] = tested on: wheat; test: Test B pre/postemergence wheat; assay type: in vivo, Triticum aestivum
Procedure, shortened: as §1

[6] = tested on: cocklebur; test: Test B pre/postemergence cocklebur; assay type: in vivo, Xanthium strumarium
Procedure, shortened: as §1

[7] = tested on: blackgrass; test: Test B pre/postemergence blackgrass; assay type: in vivo, Alopecurus myosuroides
Procedure, shortened: as §1

[8] = tested on: purple nutsedge; test: Test B pre/postemergence purple nutsedge; assay type: in vivo, Cyperus rotundus
Procedure, shortened: as §1

[9] = tested on: velvetleaf; test: Test B pre/postemergence velvetleaf; assay type: in vivo, Abutilon theophrasti
Procedure, shortened: as §1

[10] = tested on: wild oat; test: Test B pre/postemergence wild oat; assay type: in vivo, Avena fatua
Procedure, shortened: as §1

[11] = tested on: corn; test: Test B pre/postemergence corn; assay type: in vivo, Zea mays
Procedure, shortened: as §1

[12] = tested on: pigweed; test: Test B pre/postemergence pigweed; assay type: in vivo, Amaranthus retroflexus
Procedure, shortened: as §1

[13] = tested on: bedstraw; test: Test B pre/postemergence bedstraw; assay type: in vivo, Galium aparine; settings: Preemergence; for Bedstraw plant response rating: scale 0 to 10, 0 is no effect, 10 is complete control
Procedure, shortened: as §1

[14] = tested on: soybean; test: Test B pre/postemergence soybean; assay type: in vivo, Glycine max
Procedure, shortened: as §1

[15] = tested on: crabgrass; test: Test B pre/postemergence crabgrass; assay type: in vivo, Digitaria sanguinalis
Procedure, shortened: as §1

[16] = tested on: rape; test: Test B pre/postemergence rape; assay type: in vivo, Brassica napus
Procedure, shortened: as §1

[17] = Postemergence, Rate 62 g/ha, scale of 0 to 10, 0 is no effect, 10 is complete control
[18] = Postemergence, Rate 125 g/ha, scale 0 to 10, 0 is no effect, 10 is complete control
[19] = Postemergence, Rate 500 g/ha, scale 0 to 10, 0 is no effect, 10 is complete control
[20] = Preemergence, Rate 62 g/ha, scale of 0 to 10 where 0 is no effect and 10 is complete control
[21] = Preemergence, Rate 125 g/ha, scale 0 to 10, 0 is no effect, 10 is complete control
[22] = Preemergence, Rate 500 g/ha, scale of 0 to 10 where 0 is no effect and 10 is complete control
[23] = Preemergence, Rate 250 g/ha, scale 0 to 10, 0 is no effect, 10 is complete control
[24] = Postemergence, Rate 250 g/ha, scale 0 to 10

COCCOCn1c(=O)on(C(=O)N(c2ccc(F)cc2F)C(C)C)c1=O [Compound 505]
4: Plant response rating, Wheat [5, 19] | Plant response rating, Cocklebur [6, 19] | Blackgrass plant response rating [7, 18] | Plant response rating, Velvetleaf [9, 19] | Plant response rating, Rape [16, 20] | Rape plant response rating [16, 21]
6: B. signalgrass plant response rating ([4]; Preemergence, Rate 500 g/ha, scale 0 to 10, 0 is no effect, 10 is complete control) | Blackgrass plant response rating [7, 21] | Blackgrass plant response rating [7, 22] | Corn plant response rating [11, 24] | Plant response rating, Corn [11, 19] | Corn plant response rating [11, 22] | Crabgrass plant response rating [15, 21]
1: Soybean plant response rating [14, 17]
3: Sugarbeets plant response rating [1, 17] | Plant response rating, Sugarbeets [1, 20] | Sugarbeets plant response rating [1, 21] | Morningglory plant response rating [2, 22] | B. signalgrass plant response rating [4, 18] | Plant response rating, Wheat [5, 20] | Plant response rating, Nutsedge [8, 20] | Plant response rating, Wild oats [10, 19] | Corn plant response rating [11, 18]
5: Sugarbeets plant response rating [1, 18] | Morningglory plant response rating [2, 17] | Morningglory plant response rating [2, 18] | Plant response rating, Soybean [14, 19] | Soybean plant response rating [14, 22]
2: B. signalgrass plant response rating [4, 23] | Wheat plant response rating [5, 18] | Cocklebur plant response rating [6, 22] | Blackgrass plant response rating [7, 17] | Nutsedge plant response rating [8, 18] | Plant response rating, Nutsedge [8, 19] | Velvetleaf plant response rating [9, 21] | Wild oats plant response rating [10, 18] | Plant response rating, Wild oats [10, 20] | Wild oats plant response rating [10, 21] | Plant response rating, Corn [11, 20] | Corn plant response rating [11, 21] | Soybean plant response rating [14, 18] | Plant response rating, Rape [16, 19]
8: Sugarbeets plant response rating [1, 22] | Giant foxtail plant response rating [3, 17] | Giant foxtail plant response rating [3, 18] | B. signalgrass plant response rating ([4]; Postemergence, Rate 250 g/ha, scale 0 to 10, 0 no effect, 10 complete control) | Plant response rating, B. signalgrass [4, 19] | Wheat plant response rating [5, 22] | Nutsedge plant response rating [8, 22] | Bedstraw plant response rating ([13]; Rate 250 g/ha) | Crabgrass plant response rating [15, 22]
9: Plant response rating, Sugarbeets [1, 19] | Plant response rating, Giant foxtail [3, 19] | Plant response rating, Giant foxtail [3, 20] | Giant foxtail plant response rating [3, 21] | Wild oats plant response rating [10, 22] | Plant response rating, Redroot pigweed [12, 19] | Plant response rating, Redroot pigweed [12, 20] | Bedstraw plant response rating ([13]; Rate 500 g/ha) | Crabgrass plant response rating [15, 24] | Plant response rating, Crabgrass [15, 19] | Rape plant response rating [16, 22]
0: Plant response rating, Morningglory [2, 20] | Morningglory plant response rating [2, 21] | B. signalgrass plant response rating [4, 17] | Plant response rating, B. signalgrass [4, 20] | Wheat plant response rating [5, 17] | Cocklebur plant response rating [6, 17] | Cocklebur plant response rating [6, 18] | Cocklebur plant response rating [6, 24] | Plant response rating, Cocklebur [6, 20] | Cocklebur plant response rating [6, 21] | Cocklebur plant response rating [6, 23] | Plant response rating, Blackgrass [7, 20] | Nutsedge plant response rating [8, 17] | Velvetleaf plant response rating [9, 17] | Velvetleaf plant response rating [9, 18] | Plant response rating, Velvetleaf [9, 20] | Wild oats plant response rating [10, 17] | Corn plant response rating [11, 17] | Redroot pigweed plant response rating [12, 17] | Redroot pigweed plant response rating [12, 18] | Plant response rating, Bedstraw ([13]; Rate 62 g/ha, scale of 0 to 10 where 0 is no effect and 10 is complete control) | Bedstraw plant response rating ([13]; Rate 125 g/ha) | Plant response rating, Soybean [14, 20] | Soybean plant response rating [14, 21] | Rape plant response rating [16, 17] | Rape plant response rating [16, 18]
7: Plant response rating, Morningglory [2, 19] | Wheat plant response rating [5, 21] | Blackgrass plant response rating [7, 24] | Plant response rating, Blackgrass [7, 19] | Blackgrass plant response rating [7, 23] | Crabgrass plant response rating [15, 17] | Crabgrass plant response rating [15, 18]
10: Giant foxtail plant response rating [3, 22] | Nutsedge plant response rating [8, 21] | Velvetleaf plant response rating [9, 22] | Redroot pigweed plant response rating [12, 21] | Redroot pigweed plant response rating [12, 22]
